Measured values from patent publication US20250051391A1, “PEPTIDE INHIBITORS AND METHODS FOR INHIBITING PROTEIN AGGREGATION IN NEURONS AND NEURODEGENERATIVE DISEASES” (THE GOVERNING COUNCIL OF THE UNIVERSITY OF TORONTO, priority 2021, published 2025).
Ends that are not written are not given here.

Columns and labels:
[1] = test system: HEK293 cells; assay: Lysosome activity (lysosomal flux) assay in HEK293 cells; format: cell-based, human; conditions: HEK293 cells co-expressing A53T a-syn
Description: The Lysosome Intracellular Activity Assay kit was purchased from Abcam and used per manufacturer's instructions (ab234622). Briefly, cell medium was replaced with fresh medium containing DMSO, Leupeptin, or Bafilomycin A1 and incubated for 1 h at 37° C. with 5% CO2. Self-quenched substrate was added into each condition and incubated for 1 h (HEK293 cells) or overnight (SNCA triplication fibroblasts) at 37° C. with 5% CO2. After incubation, cells were washed twice in ice-cold 1× assay buffer containing DMSO, Leupeptin, or Bafilomycin A1. For HEK293 cells, cells were re-suspended in PBS containing DMSO or Leupeptin and analyzed by FACS. For fibroblasts, cells were incubated in PBS containing DMSO or Bafilomycin A1 and imaged by confocal microscopy.

[2] = test system: A53T a-syn iPSC-derived dopaminergic neurons; assay: Human iPSC-derived dopaminergic neurons with A53T a-syn mutation; format: cell-based; conditions: A53T a-syn iPSC-derived dopaminergic neurons vs isogenic controls
Description: iCell Dopa neurons (A53T a-syn mutant and isogenic control) were purchased from Fujifilm Cellular Dynamics (Madison, WI, USA) and cultured as per manufacturer's instructions. Briefly, cells were plated in complete maintenance medium provided by the manufacturer on poly-L-ornithine/laminin coated plates (ibidi). Cells recovered from thawing for 24 h and then were transduced with AAV-Scramble1.3-RFP or AAV-Pdpep1.3-RFP for 48 h at which time media was completely changed. Cells were fixed using 4% PFA at 7 days post-plating.
After fixation, cells were permeabilized with 0.2% Triton X-100 for 15 min, washed 3 times with PBS and then incubated with blocking solution (1% BSA, 22.52 mg/mL glycine, 0.1% Tween-20 in PBS) for 1 h. […] Following another 3 PBS washes, nuclei were counterstained with DAPI (ThermoFisher) and then coverslips were mounted on slides using fluorescence mounting medium (DAKO) and sealed using clear nail varnish.
Confocal images of primary cortical neurons, dopaminergic neurons, and LAMP1 staining within the SN were processed using Imaris software (Oxford instruments). Z stacks were projected to give a 3D reconstruction of the field of view and mean pixel intensity per GFP^+ cell (or RFP^+ cell for V1S/SV2 experiments) was calculated for a-syn or LAMP1 signal using the software's surfaces module. […]

[3] = test system: rat substantia nigra dopaminergic neurons; assay: AAV A53T a-syn preclinical rat model of PD; format: in vivo
Description: Adult female Sprague-Dawley rats (250-280 g; Envigo) were pair-housed in cages with wood bedding and had access to food and water ad libitum. The animal colony was maintained in a regular 12-h light/dark cycle. All procedures were approved by the University Health Network Animal Care Committee in accordance with guidelines and regulations set by the Canadian Council on Animal Care.
Animals were secured in a stereotactic frame under isoflurane/oxygen anaesthesia and ketoprofen (5 mg/kg) analgesia. The surgical site was shaved and sterilized with iodine/betadine prior to making a 2 cm incision along the midline. The scalp was exposed and a unilateral injection targeting the SN was performed at coordinates AP−5.2 mm, ML−2 mm and DV−7.4 mm with respect to the bregma as a point of reference. For each animal, a total volume of 2 μl of virus was injected at a rate of 0.5 μl/min using a microinjection pump and 10 μl Hamilton syringe with a 26-gauge needle. For A53T groups, 1 μl (low dose) or 1.34 μl (high dose) of AAV1/2-A53T a-syn (5.1×10^12 genomic particles/ml), 0.14 μl of AAV1/2-Pdpep1.3-GFP or scramble1.3-GFP (5.1×10^12 genomic particles/ml) and 0.86 μl or 0.52 μl of sterile PBS was injected; for EV groups, 1 μl (low dose) or 1.34 μl (high dose) of AAV1/2-EV (5.1×10^12 genomic particles/ml) replaced AAV1/2-A53T. For V1S+SV2 groups, 0.58 μl of AAV1/2-V1S (1.1×10^12 genomic particles/ml), 0.58 μl of AAV1/2-SV2 (1.1×10^12 genomic particles/ml), 0.14 μl of AAV1/2-Pdpep1.3-RFP or scramble1.3-RFP (5.1×10^12 genomic particles/ml) and 0.7 μl of sterile PBS was injected; for the YFP groups, 1.16 μl of AAV1/2-YFP (1.1×10^12 genomic particles/ml), 0.14 μl of AAV1/2-Pdpep1.3-RFP or scramble1.3-RFP (5.1×10^12 genomic particles/ml) and 0.7 μl of sterile PBS was injected. At the end of virus injection, the needle remained in place for 5 minutes before gradual removal.
Spontaneous forepaw use was evaluated using the cylinder test 1 day prior to stereotactic AAV injection, at 21 days post-injection and at 41 days post-injection. Following overnight food restriction, individual rats with right paws marked black were placed into a glass cylinder in front of two mirrors and videos recorded. An observer blinded to treatment conditions later scored the videos by recording whether animals used their left or right forepaw to touch the inner glass surface upon rearing. A total of 5 min of video recording was scored and a minimum of 10 total touches was required for data inclusion (61).
Animals were uthanized by transcardial perfusion with heparinised saline under isoflurane/oxygen anaesthesia. Brains were then removed and the ventral part, including the ventral striatum, was snap frozen in liquid dry ice-cooled isopentane. A single 1 mm thick section of the ventral striatum was immediately cut, using a matrix, for high-performance liquid chromatography (HPLC) analysis of biogenic amines. The dorsal part, including the dorsal striatum, STN, and the SN, was immersion-fixed in 4% paraformaldehyde in 0.1M PBS for 2 days and cryo-protected in 30% sucrose in 0.1M PBS solution for another 3 days until the brains sank. For immunofluorescent staining, 40 μm coronal cryosections were then prepared using a sliding microtome (Leica Microsystems Inc.) and 6 series of sections were stored in cryoprotectant (30% glycerol, 30% ethylene glycol, 40% PBS) at −20° C. until use.
Immunofluorescence staining for a-syn, tyrosine hydroxylase and LAMP1 was performed by washing free-floating sections with PBS-T (0.2% Triton X-100) three times for 10 min each at room temperature. Sections were then incubated in blocking solution (1% BSA, 10% normal goat serum in PBS-T) for 1 h. After blocking, sections were incubated with primary antibodies in antibody solution (2% normal goat serum in PBS-T) overnight at RT. Sections were then washed in PBS and incubated with secondary antibodies diluted in antibody solution for 1 h in the dark at room temperature. […]

[4] = higher titer AAV-A53T a-syn, vs Scramble1.3 condition

DEEIERQLKALG [PDpep1.3]
lysosomal flux [1]: returned lysosomal flux to baseline | LAMP1 levels [2]: returned both a-syn and LAMP1 levels to those of controls | a-syn levels [2]: returned both a-syn and LAMP1 levels to those of controls | forelimb asymmetry in the cylinder test ([3]; higher titer AAV-A53T a-syn, 6 weeks): comparable to controls | dopaminergic neurodegeneration in the SN (TH+ cell counts) ([3]; higher titer AAV-A53T a-syn, 6 weeks post-injection): mitigated | striatal levels of DOPAC [3, 4]: restored | striatal levels of HVA [3, 4]: restored | striatal levels of dopamine [3, 4]: restored | LAMP1-positive puncta in the SN ([3]; lower titer AAV-A53T a-syn): restored | total a-syn positive area in the SN ([3]; lower titer AAV-A53T a-syn, vs Scramble1.3): significant reduction | a-syn mean fluorescence intensity in cells positive for TH and GFP ([3]; rats, low titer AAV-A53T a-syn, AAV-expressed GFP peptide): 0.335±0.025 RFU
